Biological target: T1, LPA1 (Homo sapiens, UniProt Q92633)
T1 construct: ProLink (PK) beta-galactosidase enzyme-fragment tag; host or cells: CHO-K1
Experiment: LPA1 calcium flux assay (LPA1 functional antagonist assay)
Type: cell-based
Details: PathHunter CHO-K1 EDG2 β-Arrestin cell line; calcium indicator dye; stimulated with EC80 concentration of LPA; FLIPR Tetra
Method in brief: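 The LPA1 antagonist readout was intracellular calcium flux, and IC50 values were calculated from it. Plates stood 30 min at RT after compound addition. Cells, grown overnight, had first taken up calcium dye over 45 min at 37 °C.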

T1 sequence (Q92633 whole entry, the tested form may be a part): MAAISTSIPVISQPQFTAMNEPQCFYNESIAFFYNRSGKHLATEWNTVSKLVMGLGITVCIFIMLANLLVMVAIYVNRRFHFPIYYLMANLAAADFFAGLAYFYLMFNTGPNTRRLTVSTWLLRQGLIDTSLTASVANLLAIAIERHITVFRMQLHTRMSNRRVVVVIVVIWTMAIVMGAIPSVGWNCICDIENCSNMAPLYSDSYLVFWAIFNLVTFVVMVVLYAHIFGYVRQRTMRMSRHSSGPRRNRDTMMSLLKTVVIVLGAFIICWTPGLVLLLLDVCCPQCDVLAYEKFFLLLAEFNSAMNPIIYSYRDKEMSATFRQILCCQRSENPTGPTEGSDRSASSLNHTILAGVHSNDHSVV

Structure (SMILES)	IC50 [nM]
CCCc1ccc(=O)n(Cc2c(-c3ccc(N4CCC[C@@H](CC(=O)O)C4)c(CC)n3)nnn2C)c1 [Example 23, (S)-2-(1-(2-ethyl-6-(1-methyl-5-((2-oxo-5-propylpyridin-1(2H)-yl)methyl)-1H-1,2,3-triazol-4-yl)pyridin-3-yl)piperidin-3-yl)acetic acid]	> 5000
CCc1nc(-c2nnn(C)c2Cn2cc(OC3CC3)ccc2=O)ccc1N1C[C@@H](CC(=O)O)CC(F)(F)C1 [Example 24, (S)-2-(1-(6-(5-((5-cyclopropoxy-2-oxopyridin-1(2H)-yl)methyl)-1-methyl-1H-1,2,3-triazol-4-yl)-2-ethylpyridin-3-yl)-5,5-difluoropiperidin-3-yl)acetic acid]	< 100
CCCOc1ccc(=O)n(Cc2c(-c3ccc(N4C[C@@H](CC(=O)O)CC(F)(F)C4)c(CC)n3)nnn2C)c1 [Example 25, (S)-2-(1-(2-ethyl-6-(1-methyl-5-((2-oxo-5-propoxypyridin-1 (2H)-yl)methyl)-1H-1,2,3-triazol-4-yl)pyridin-3-yl)-5,5-difluoropiperidin-3-yl)acetic acid]	100 to 500
CCOc1ccc(=O)n(Cc2c(-c3ccc(N4C[C@@H](CC(=O)O)CC(F)(F)C4)c(CC)n3)nnn2C)c1 [Example 26, (S)-2-(1-(6-(5-((5-ethoxy-2-oxopyridin-1(2H)-yl)methyl)-1-methyl-1H-1,2,3-triazol-4-yl)-2-ethylpyridin-3-yl)-5,5-difluoropiperidin-3-yl)acetic acid]	100 to 500
CCc1nc(-c2nnn(C)c2Cn2cc(N3CCC3)ccc2=O)ccc1N1C[C@@H](CC(=O)O)CC(F)(F)C1 [Example 27, (S)-2-(1-(6-(5-((5-(azetidin-1-yl)-2-oxopyridin-1(2H)-yl)methyl)-1-methyl-1H-1,2,3-triazol-4-yl)-2-ethylpyridin-3-yl)-5,5-difluoropiperidin-3-yl)acetic acid]	500 to 5000
CCc1nc(-c2nnn(C)c2Cn2cc(-n3cccn3)ccc2=O)ccc1N1C[C@@H](CC(=O)O)CC(F)(F)C1 [Example 28, (S)-2-(1-(2-ethyl-6-(1-methyl-5-((2-oxo-5-(1H-pyrazol-1-yl)pyridin-1 (2H)-y)methyl)-1H-1,2,3-triazol-4-yl)pyridin-3-yl)-5,5-difluoropiperidin-3-yl)acetic acid]	500 to 5000
CCCc1cn(Cc2c(-c3ccc(N4C[C@@H](CC(=O)O)CC(F)(F)C4)c(CC)n3)nnn2C)c(=O)cn1 [Example 29, (S)-2-(1-(2-ethyl-6-(1-methyl-5-((2-oxo-5-propylpyrazin-1(2H)-yl)methyl)-1H-1,2,3-triazol-4-yl)pyridin-3-yl)-5,5-difluoropiperidin-3-yl)acetic acid]	100 to 500
CCCc1cc(=O)n(Cc2c(-c3ccc(N4C[C@@H](CC(=O)O)CC(F)(F)C4)c(CC)n3)nnn2C)cn1 [Example 31]	> 5000
CCCc1ccnn(Cc2c(-c3ccc(N4C[C@@H](CC(=O)O)CC(F)(F)C4)c(C)n3)nnn2C)c1=O [Example 32, (S)-2-(5,5-difluoro-1-(2-methyl-6-(1-methyl-5-((6-0xo-5-propylpyridazin-1(6H)-yl)methyl)-1H-1,2,3-triazol-4-yl)pyridin-3-yl)piperidin-3-yl)acetic acid]	500 to 5000
CCCc1cnn(Cc2c(-c3ccc(N4C[C@@H](CC(=O)O)CC(F)(F)C4)c(C)n3)nnn2C)c(=O)c1 [Example 33, (S)-2-(5,5-difluoro-1-(2-methyl-6-(1-methyl-5-((6-oxo-4-propylpyridazin-1(6H)-yl)methyl)-1H-1,2,3-triazol-4-yl)pyridin-3-yl)piperidin-3-yl)acetic acid]	> 5000
CCCc1ccc(=O)n(Cc2c(-c3ccc(N4C[C@@H](CC(=O)O)CC(F)(F)C4)c(C)n3)nnn2C)n1 [Example 34, (S)-2-(5,5-difluoro-1-(2-methyl-6-(1-methyl-5-((6-oxo-3-propylpyridazin-1(6H)-yl)methyl)-1H-1,2,3-triazol-4-yl)pyridin-3-yl)piperidin-3-yl)acetic acid]	500 to 5000
CCc1nc(-c2nnn(C)c2Cn2nc(CC3CC3)ccc2=O)ccc1N1C[C@@H](CC(=O)O)CC(F)(F)C1 [Example 35, (S)-2-(1-(6-(5-((3-(cyclopropyImethyl)-6-oxopyridazin-1(6H)-yl)methyl)-1-methyl-1H-1,2,3-triazol-4-yl)-2-ethylpyridin-3-yl)-5,5-difluoropiperidin-3-yl)acetic acid]	100 to 500
CCc1nc(-c2nnn(C)c2Cn2nc(C3CC3)ccc2=O)ccc1N1C[C@@H](CC(=O)O)CC(F)(F)C1 [Example 36, (S)2-(1-(6-(5-((3-cyclopropyl-6-oxopyridazin-1(6H)-yl)methyl)-1-methyl-1H-1,2,3-triazol-4-yl)-2-ethylpyridin-3-yl)-5,5-difluoropiperidin-3-yl)acetic acid]	100 to 500
CCCc1ccc(=O)n(Cc2c(-c3ncc(N4C[C@@H](CC(=O)O)CC(F)(F)C4)c(CC)n3)cnn2C)c1 [Example 37, (S)-2-(1-(4-ethyl-2-(1-methyl-5-((2-oxo-5-propylpyridin-1(2H)-yl)methyl)-1H-pyrazol-4-yl)pyrimidin-5-yl)-5,5-difluoropiperidin-3-yl)acetic acid]	> 5000
CCCc1cnc(=O)n(Cc2c(-c3ncc(N4C[C@@H](CC(=O)O)CC(F)(F)C4)c(CC)n3)cnn2C)c1 [Example 38, (S)-2-(1-(4-ethyl-2-(1-methyl-5-((2-oxo-5-propylpyrimidin-1(2H)-yl)methyl)-1H-pyrazol-4-yl)pyrimidin-5-yl)-5,5-difluoropiperidin-3-yl)acetic acid]	> 5000
CCc1nc(-c2cnn(C)c2Cn2cc(C3CC3)ccc2=O)ncc1N1C[C@@H](CC(=O)O)CC(F)(F)C1 [Example 39, (S)-2-(1-(2-(5-((5-cyclopropyl-2-oxopyridin-1(2H)-yl)methyl)-1-methyl-1H-pyrazol-4-yl)-4-ethylpyrimidin-5-yl)-5,5-difluoropiperidin-3-yl)acetic acid]	500 to 5000
CCc1nc(-c2cnn(C)c2Cn2cc(CC(C)C)ccc2=O)ncc1N1C[C@@H](CC(=O)O)CC(F)(F)C1 [Example 40, (S)-2-(1-(4-ethyl-2-(5-((5-isobutyl-2-oxopyridin-1(2H)-yl)methyl)-1-methyl-1H-pyrazol-4-yl)pyrimidin-5-yl)-5,5-difluoropiperidin-3-yl)acetic acid]	500 to 5000
CCCc1ccc(=O)n(Cc2c(-c3ccc(N4C[C@@H](CC(=O)O)CC(F)(F)C4)c(CC)n3)cnn2C)c1 [Example 41, (S)-2-(1-(2-ethyl-6-(1-methyl-5-((2-oxo-5-propylpyridin-1(2H)-yl)methyl)-1H-pyrazol-4-yl)pyridin-3-yl)-5,5-difluoropiperidin-3-yl)acetic acid]	100 to 500
CCCc1ccc(=O)n(Cc2c(-c3ccc(N4CCC[C@H](CC(=O)O)C4)c(CC)n3)cnn2C)c1 [Example 42, (R)-2-(1-(2-ethyl-6-(1-methyl-5-((2-oxo-5-propylpyridin-1(2H)-yl)methyl)-1H-pyrazol-4-yl)pyridin-3-yl)piperidin-3-yl)acetic acid]	500 to 5000
CCCc1ccnn(CCc2c(-c3ccc(N4CC(CC(=O)O)CC(F)(F)C4)c(C)n3)nnn2C)c1=O (stereo not drawn) [Example 44, 2-[5,5-difluoro-1-(2-methyl-6-{1-methyl-5-[2-(6-oxo-5-propyl-1,6-dihydropyridazin-1-yl)ethyl]-1H-1,2,3-triazol-4-yl}pyridin-3-yl)piperidin-3-yl]acetic acid]	> 5000
CCCc1ccc(=O)n(Cc2c(-c3cc(F)c(N4CCCC(CC(=O)O)C4)c(C)n3)nnn2C)c1 (stereo not drawn) [Example 47, 2-(1-(4-fluoro-2-methyl-6-(1-methyl-5-((2-oxo-5-propylpyridin-1(2H)-yl)methyl)-1H-1,2,3-triazol-4-yl)pyridin-3-yl)piperidin-3-yl)acetic acid]	> 5000
CCCc1ccc(=O)n(Cc2c(-c3cc(F)c(N4CCCC(CC(=O)O)C4)c(CC)n3)nnn2C)c1 (stereo not drawn) [Example 48, 2-(1-(2-ethyl-4-fluoro-6-(1-methyl-5-((2-oxo-5-propylpyridin-1(2H)-yl)methyl)-1H-1,2,3-triazol-4-yl)pyridin-3-yl)piperidin-3-yl)acetic acid]	> 5000
CCCc1ccc(=O)n(Cc2c(-c3ccc(N4C[C@@H](CC(=O)O)CC(F)(F)C4)c(C#N)n3)nnn2C)c1 [Example 49, (S)-2-(1-(2-cyano-6-(1-methyl-5-((2-oxo-5-propylpyridin-1(2H)-yl)methyl)-1H-1,2,3-triazol-4-yl)pyridin-3-yl)-5,5-difluoropiperidin-3-yl)acetic acid]	> 5000
CCCc1ccc(=O)n(Cc2c(-c3ccc(N4CCC[C@H](CC(=O)O)C4)c(C#N)n3)nnn2C)c1 [Example 50, (R)-2-(1-(2-cyano-6-(1-methyl-5-((2-oxo-5-propylpyridin-1(2H)-yl)methyl)-1H-1,2,3-triazol-4-yl)pyridin-3-yl)piperidin-3-yl)acetic acid]	> 5000
CCCc1ccc(=O)n(Cc2c(-c3ccc(N4CCC[C@@H](CC(=O)O)C4)c(C#N)n3)nnn2C)c1 [Example 51, (S)-2-(1-(2-cyano-6-(1-methyl-5-((2-oxo-5-propylpyridin-1(2H)-yl)methyl)-1H-1,2,3-triazol-4-yl)pyridin-3-yl)piperidin-3-yl)acetic acid]	> 5000
CCCc1ccc(=O)n(Cc2c(-c3cnc(N4CCCC(CC(=O)O)C4)cn3)nnn2C)c1 (stereo not drawn) [Example 57, 2-(1-(5-(1-methyl-5-((2-oxo-5-propylpyridin-1(2H)-yl)methyl)-1H-1,2,3-triazol-4-yl)pyrazin-2-yl)piperidin-3-yl)acetic acid]	> 5000
CCCc1ccc(=O)n(Cc2c(-c3ccc(N4CCC[C@H](CC(=O)O)C4)c(C(F)(F)F)n3)nnn2C)c1 [Example 58, 2-[(3R)-1-(6-{1-methyl-5-[(2-oxo-5-propyl-1,2-dihydropyridin-1-yl)methyl]-1H-1,2,3-triazol-4-yl}-2-(trifluoromethyl)pyridin-3-yl)piperidin-3-yl]acetic acid]	< 100

Reference: patent publication US12780800B1, “Triazole-pyridinyl substituted azacyclohexyl acetic acid compounds as LPA receptor antagonists” (Viva Star Biosciences Limited, priority 2021, dated 2022)
